Laboratory results published in patent US5668136A, “Trisubstituted benzene derivatives, composition and methods of treatment” (priority 1990, dated 1997).

Assays:
ACAT = molecular target: T1, ACAT (Oryctolagus cuniculus, UniProt G1SFD9); assay: ACAT-inhibitory activity (in-vitro test, esterification of cholesterol with oleoyl-CoA, microsome of the small intestine of a rabbit); assay type: biochemical
T1 construct: by using the microsome of the small intestine of a rabbit as an enzyme source; from tissue; host or cells: rabbit small intestine, microsomes
T1 sequence (G1SFD9 1-524): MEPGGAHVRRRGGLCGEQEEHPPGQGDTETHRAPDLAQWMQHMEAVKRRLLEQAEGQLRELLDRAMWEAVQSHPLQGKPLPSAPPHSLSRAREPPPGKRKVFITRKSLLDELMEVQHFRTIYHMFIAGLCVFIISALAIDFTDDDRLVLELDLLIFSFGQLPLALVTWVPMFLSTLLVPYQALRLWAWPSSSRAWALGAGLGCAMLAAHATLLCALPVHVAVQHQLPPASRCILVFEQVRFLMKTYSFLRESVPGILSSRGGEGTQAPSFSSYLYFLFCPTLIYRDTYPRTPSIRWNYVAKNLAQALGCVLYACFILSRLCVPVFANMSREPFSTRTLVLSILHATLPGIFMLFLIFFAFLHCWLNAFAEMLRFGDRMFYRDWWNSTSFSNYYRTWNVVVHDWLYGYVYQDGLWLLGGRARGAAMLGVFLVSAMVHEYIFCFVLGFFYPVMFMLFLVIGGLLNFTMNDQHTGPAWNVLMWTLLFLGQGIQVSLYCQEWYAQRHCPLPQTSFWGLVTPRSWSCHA
Protocol: Representative compounds according to the present invention were examined for ACAT-inhibitory activity according to the in-vitro test proposed in Journal of Lipid Research, vol.
The inhibitory activity of a test compound against esterification or acylation of cholesterol with oleoyl CoA or acyl-CoA was evaluated by using the microsome of the small intestine of a rabbit as an enzyme source and determining the amount of a radioisotope-labeled cholesterol oleate made from a radioisotope-labeled oleoyl-CoA and (free) cholesterol.

[1] = In-vivo test: serum cholesterol level in hypercholesterolemic rats; parameters: species or system male Sprague-Dawley rat; details: oral, once a day, 10 mg per kg; food containing 1% of cholesterol for 2 days
Protocol: A male Sprague-Dawley rat was made to get hypercholesterolemia by feeding with food containing 1% of cholesterol for 2 days. A compound of the present invention (compound of Example 1, 54, 17 or 64) was orally administered to the rat once a day in a dose of 10 mg per kg of the weight.

[2] = One week toxic study in rats; assay type: in vivo, Sprague-Dawley rats; details: oral, 100 mg/kg daily for one week; for toxicity (overall finding of one week study): same condition
Protocol: The compound was orally given to animals at daily does of 100 mg/kg for one week.

Row | SMILES | IC50 (ACAT) [nM] | lowering of serum cholesterol level [1] | toxicity (overall finding of one week study) [2] | toxicological symptom during the administration [2]
1 | CCCCCNC(=O)Nc1c(OCCCn2cnc(-c3ccccc3)c2C)cccc1N(C)C [Example 1, N-[6-N,N-Dimethylamino-2-{3-(5-methyl-4-phenyl-1H-imidazol-1-yl)propoxy}]phenyl-N'-pentylurea] | 43 | effectively lowered | no toxic substances | 
2 | CCCCNC(=O)Nc1c(OCCCn2cnc(-c3ccccc3)c2)cccc1N(C)C [Example 2, N-[6-N,N-Dimethylamino-2-{3-(4-phenyl-1H-imidazol-1-yl)propoxy}]phenyl-N'-butylurea] |  |  | no toxic substances | 
3 | CCCCCNC(=O)Nc1c(OCCCn2cnc(-c3ccccc3)c2)cccc1N(C)C [Example 5, N-[6-N,N-Dimethylamino-2-{3-(4-phenyl-1H-imidazol-1-yl)propoxy}]phenyl-N'-pentylurea] |  |  | no toxic substances | 
4 | CCCCCCNC(=O)Nc1c(OCCCn2cnc(-c3ccccc3)c2)cccc1N(C)C [Example 17, N-[6-N,N-Dimethylamino-2-{3-(4-phenyl-1H-imidazol-1-yl)propoxy}]phenyl-N'-hexylurea] | 31 | effectively lowered | no toxic substances | 
5 | CCCCNC(=O)Nc1c(C)cccc1OCCCn1cnc(-c2ccccc2)c1 [Example 54, N-[6-Methyl-2-{3-(4-phenyl-1H-imidazol-1-yl)propoxy}]-phenyl-N'-butylurea] | 48 | effectively lowered |  | 
6 | CCCCCNC(=O)Nc1c(OCCCN2CCN(c3ccccc3)CC2)cccc1N(C)C [Example 64, N-[6-N,N-Dimethylamino-2-{3-(4-phenylpiperazin-1-yl)propoxy}]phenyl-N'-pentylurea] | 17 | effectively lowered |  | 
7 | CCCCNC(=O)Nc1c(C)cccc1OCCCn1cnc(-c2ccccc2)c1C(C)C [Example 80, N-[6-Methyl-2-[3-{5-(1-methylethyl)-4-phenyl-1H-imidazol-1-yl}propoxy]]phenyl-N'-butylurea] | 88 |  | no toxic substances | 
8 | CCCCNC(=O)Nc1c(C)cccc1OCCCn1cnc(-c2ccccc2)c1CC [Example 81, N-[6-Methyl-2-{3-(5-ethyl-4-phenyl-1H-imidazol-1-yl)-propoxy}]phenyl-N'-butylurea] |  |  | no toxic substance | No toxicological sympton was observed
9 | CCCCCNC(=O)Nc1c(C)cccc1OCCCn1cnc(-c2ccccc2)c1Cl [Example 93, N-[6-Methyl-2-{3-(5-chloro-4-phenyl-1H-imidazol-1-yl)-propoxy}]phenyl-N'-pentylurea] | 49 |  |  | 
10 | CCCCCNC(=O)Nc1c(C)cccc1OCCCn1cnc(-c2ccccc2)c1C [Example 127, N-[6-Methyl-2-{3-(5-methyl-4-phenyl-1H-imidazol-1-yl)-propoxy}]phenyl-N'-pentylurea] | 100 |  | no toxic substances | 
